According to patent publication US6379696B1, “Therapeutic preparation for the transdermal administration of active substances” (priority 1995, dated 2002):

Legend:
[1] = Permeation rate of morphine base through excised guinea pig skin with added LOVASTATIN; conditions: LOVASTATIN 2%-wt. added; after 24 h; released in 0.9% salt solution, T=37° C., n=3
[2] = topical application; cited from earlier work

Compound: CC[C@H](C)C(=O)O[C@H]1C[C@@H](C)C=C2C=C[C@H](C)[C@H](CC[C@@H]3C[C@@H](O)CC(=O)O3)[C@H]21 [LOVASTATIN]
- permeation rate of morphine base [1]: double
- DNA-synthesis in the epidermis [2]: increase
- cholesterol level in the skin [2]: decrease
- transepidermal loss of water [2]: increase
